Assay results taken from patent US11091876B2, “Moisture resistant biodegradable composition” (AUTOM RIVER INC., priority 2015, dated 2021).

How the values were obtained:
plants = conditions: cited from earlier work
mosquitoes = test: Mosquito mortality with insecticide-sprayed water-filled containers in a closed area; format: in vivo; conditions: containers double sprayed, after about 4 weeks
Description: The biodegradable containers also successfully functioned as a mosquito trap. For example, containers were double sprayed with lambda-cyalothrin, filled with water and placed in a closed area with a known number of mosquitoes. After about 4 weeks, mosquito mortality was measured by counting the number of live mosquitoes compared to the dead mosquitoes. 100% mosquito mortality was achieved.

| Structure (SMILES) | incompatibility on cultivated plants (plants) | phytotoxicity to most plants (plants; when used as directed) | mosquito mortality (mosquitoes) |
| --- | --- | --- | --- |
| CC1(C)C(C=C(Cl)Cl)C1C(=O)OCc1cccc(Oc2ccccc2)c1 (stereo not drawn) [permethrin] | No incompatibility has been observed | not phytotoxic | – |
| CC1(C)[C@H](C(=O)O[C@H](C#N)c2cccc(Oc3ccccc3)c2)[C@@H]1/C=C(\Cl)C(F)(F)F [lambda-cyalothrin] | – | – | 100% |
